Numbers after ± are expanded uncertainties.

One data set is described as follows: molar heat capacity at constant pressure. Conditions: 275.15 K; 101.33 kPa; Liquid; Large sample (1 g) DSC.
For `CCCCCCOCCOCCO` [2-(2-hexyloxyethoxy)ethanol], the “molar heat capacity at constant pressure” value is given as 411.2 ± 6.4 J/K/mol.
Take `CCCCOCCO` [2-butoxyethan-1-ol]: the “molar heat capacity at constant pressure” value worked out at 261.7 ± 4.1 J/K/mol.
`COCCOCCO` [2-(2-methoxyethoxy)ethanol]: the “molar heat capacity at constant pressure” value is 261.9 ± 4.1 J/K/mol.
As to `CCOCCO` [2-ethoxyethan-1-ol], the “molar heat capacity at constant pressure” value came to 203.3 ± 3.2 J/K/mol.
For the compound `COCCOCCOCCO` [2-[2-(2-methoxyethoxy)ethoxy]ethanol], the “molar heat capacity at constant pressure” value came out at 352.2 ± 5.5 J/K/mol.

The data set is the same for the next values; noted with them: 277.15 K; 101.33 kPa; Liquid; Large sample (1 g) DSC.
Turning to `CCCCCCOCCOCCO` [2-(2-hexyloxyethoxy)ethanol], the “molar heat capacity at constant pressure” value is 412 ± 6.4 J/K/mol.
As for `CCCCOCCO` [2-butoxyethan-1-ol], the “molar heat capacity at constant pressure” value is 262.6 ± 4.1 J/K/mol.
`COCCOCCO` [2-(2-methoxyethoxy)ethanol]: the “molar heat capacity at constant pressure” value is 262.3 ± 4.1 J/K/mol.
As to `CCOCCO` [2-ethoxyethan-1-ol], the “molar heat capacity at constant pressure” value is 204 ± 3.2 J/K/mol.
Regarding `COCCOCCOCCO` [2-[2-(2-methoxyethoxy)ethoxy]ethanol], the “molar heat capacity at constant pressure” value was determined as 352.6 ± 5.5 J/K/mol.

The data set is the same for the next values; noted with them: 279.15 K; 101.33 kPa; Liquid; Large sample (1 g) DSC.
Regarding `CCCCCCOCCOCCO` [2-(2-hexyloxyethoxy)ethanol], the “molar heat capacity at constant pressure” value is reported as 412.8 ± 6.4 J/K/mol.
The same measure, in the same setting: to `CCCCOCCO` [2-butoxyethan-1-ol] belongs 263.6 ± 4.1 J/K/mol.
With `COCCOCCO` [2-(2-methoxyethoxy)ethanol], the “molar heat capacity at constant pressure” value turned out to be 262.7 ± 4.1 J/K/mol.
Take `CCOCCO` [2-ethoxyethan-1-ol]: the “molar heat capacity at constant pressure” value is recorded as 204.6 ± 3.2 J/K/mol.
Regarding `COCCOCCOCCO` [2-[2-(2-methoxyethoxy)ethoxy]ethanol], the “molar heat capacity at constant pressure” value is listed as 352.9 ± 5.5 J/K/mol.

The data set is the same for the next values; noted with them: 281.15 K; 101.33 kPa; Liquid; Large sample (1 g) DSC.
With `CCCCCCOCCOCCO` [2-(2-hexyloxyethoxy)ethanol], the “molar heat capacity at constant pressure” value is recorded as 413.6 ± 6.4 J/K/mol.
For the compound `CCCCOCCO` [2-butoxyethan-1-ol], the “molar heat capacity at constant pressure” value was determined as 264.6 ± 4.1 J/K/mol.
On the same count and under the same terms, with `COCCOCCO` [2-(2-methoxyethoxy)ethanol] the figure was 263.2 ± 4.1 J/K/mol.
For the compound `CCOCCO` [2-ethoxyethan-1-ol], the “molar heat capacity at constant pressure” value was 205.3 ± 3.2 J/K/mol.
As for `COCCOCCOCCO` [2-[2-(2-methoxyethoxy)ethoxy]ethanol], the “molar heat capacity at constant pressure” value was 353.2 ± 5.5 J/K/mol.

The same data set, now with this note: 283.15 K; 101.33 kPa; Liquid; Large sample (1 g) DSC.
For the compound `CCCCCCOCCOCCO` [2-(2-hexyloxyethoxy)ethanol], the “molar heat capacity at constant pressure” value was 414.4 ± 6.4 J/K/mol.
Turning to `CCCCOCCO` [2-butoxyethan-1-ol], the “molar heat capacity at constant pressure” value was 265.6 ± 4.1 J/K/mol.
As to `COCCOCCO` [2-(2-methoxyethoxy)ethanol], the “molar heat capacity at constant pressure” value came to 263.6 ± 4.1 J/K/mol.
As for `CCOCCO` [2-ethoxyethan-1-ol], the “molar heat capacity at constant pressure” value stood at 205.9 ± 3.2 J/K/mol.
Still for that read-out and setting: with `COCCOCCOCCO` [2-[2-(2-methoxyethoxy)ethoxy]ethanol] the figure was 353.6 ± 5.5 J/K/mol.

Still in this data set, the particulars now being: 285.15 K; 101.33 kPa; Liquid; Large sample (1 g) DSC.
With `CCCCCCOCCOCCO` [2-(2-hexyloxyethoxy)ethanol], the “molar heat capacity at constant pressure” value is recorded as 415.3 ± 6.4 J/K/mol.
Still for that read-out and setting: with `CCCCOCCO` [2-butoxyethan-1-ol] the figure was 266.6 ± 4.1 J/K/mol; with `COCCOCCO` [2-(2-methoxyethoxy)ethanol], 264.1 ± 4.1 J/K/mol.
As to `CCOCCO` [2-ethoxyethan-1-ol], the “molar heat capacity at constant pressure” value is given as 206.6 ± 3.2 J/K/mol.
Regarding `COCCOCCOCCO` [2-[2-(2-methoxyethoxy)ethoxy]ethanol], the “molar heat capacity at constant pressure” value stood at 353.9 ± 5.5 J/K/mol.

The same data set, now with this note: 287.15 K; 101.33 kPa; Liquid; Large sample (1 g) DSC.
As for `CCCCCCOCCOCCO` [2-(2-hexyloxyethoxy)ethanol], the “molar heat capacity at constant pressure” value is 416.1 ± 6.4 J/K/mol.
As to `CCCCOCCO` [2-butoxyethan-1-ol], the “molar heat capacity at constant pressure” value was found to be 267.6 ± 4.1 J/K/mol.
For the compound `COCCOCCO` [2-(2-methoxyethoxy)ethanol], the “molar heat capacity at constant pressure” value came out at 264.6 ± 4.1 J/K/mol.
Regarding `CCOCCO` [2-ethoxyethan-1-ol], the “molar heat capacity at constant pressure” value is 207.3 ± 3.2 J/K/mol.
Regarding `COCCOCCOCCO` [2-[2-(2-methoxyethoxy)ethoxy]ethanol], the “molar heat capacity at constant pressure” value is listed as 354.3 ± 5.5 J/K/mol.

Still in this data set, the particulars now being: 289.15 K; 101.33 kPa; Liquid; Large sample (1 g) DSC.
With `CCCCCCOCCOCCO` [2-(2-hexyloxyethoxy)ethanol], the “molar heat capacity at constant pressure” value worked out at 417 ± 6.5 J/K/mol.
Same read-out and setting: to `CCCCOCCO` [2-butoxyethan-1-ol] belongs 268.5 ± 4.2 J/K/mol.
Turning to `COCCOCCO` [2-(2-methoxyethoxy)ethanol], the “molar heat capacity at constant pressure” value is recorded as 265.1 ± 4.1 J/K/mol.
On to `CCOCCO` [2-ethoxyethan-1-ol], for which the “molar heat capacity at constant pressure” value is 208 ± 3.2 J/K/mol.
`COCCOCCOCCO` [2-[2-(2-methoxyethoxy)ethoxy]ethanol]: the “molar heat capacity at constant pressure” value was 354.7 ± 5.5 J/K/mol.

Still in this data set, the particulars now being: 291.15 K; 101.33 kPa; Liquid; Large sample (1 g) DSC.
Consider `CCCCCCOCCOCCO` [2-(2-hexyloxyethoxy)ethanol], for which the “molar heat capacity at constant pressure” value was determined as 417.9 ± 6.5 J/K/mol.
As for `CCCCOCCO` [2-butoxyethan-1-ol], the “molar heat capacity at constant pressure” value turned out to be 269.5 ± 4.2 J/K/mol.
Still for that read-out and setting: with `COCCOCCO` [2-(2-methoxyethoxy)ethanol] the figure was 265.6 ± 4.1 J/K/mol; with `CCOCCO` [2-ethoxyethan-1-ol], 208.6 ± 3.2 J/K/mol.
Consider `COCCOCCOCCO` [2-[2-(2-methoxyethoxy)ethoxy]ethanol], for which the “molar heat capacity at constant pressure” value was 355.1 ± 5.5 J/K/mol.

Still in this data set, the particulars now being: 293.15 K; 101.33 kPa; Liquid; Large sample (1 g) DSC.
For the compound `CCCCCCOCCOCCO` [2-(2-hexyloxyethoxy)ethanol], the “molar heat capacity at constant pressure” value is 418.7 ± 6.5 J/K/mol.
Turning to `CCCCOCCO` [2-butoxyethan-1-ol], the “molar heat capacity at constant pressure” value came out at 270.5 ± 4.2 J/K/mol.
Take `COCCOCCO` [2-(2-methoxyethoxy)ethanol]: the “molar heat capacity at constant pressure” value is listed as 266.1 ± 4.1 J/K/mol.
Still for that read-out and setting: with `CCOCCO` [2-ethoxyethan-1-ol] the figure was 209.3 ± 3.2 J/K/mol; with `COCCOCCOCCO` [2-[2-(2-methoxyethoxy)ethoxy]ethanol], 355.5 ± 5.5 J/K/mol.

Staying with this data set, now noted: 295.15 K; 101.33 kPa; Liquid; Large sample (1 g) DSC.
As to `CCCCCCOCCOCCO` [2-(2-hexyloxyethoxy)ethanol], the “molar heat capacity at constant pressure” value is 419.6 ± 6.5 J/K/mol.
With `CCCCOCCO` [2-butoxyethan-1-ol], the “molar heat capacity at constant pressure” value turned out to be 271.5 ± 4.2 J/K/mol.
Take `COCCOCCO` [2-(2-methoxyethoxy)ethanol]: the “molar heat capacity at constant pressure” value is given as 266.6 ± 4.1 J/K/mol.
For the compound `CCOCCO` [2-ethoxyethan-1-ol], the “molar heat capacity at constant pressure” value was 210 ± 3.3 J/K/mol.
Regarding `COCCOCCOCCO` [2-[2-(2-methoxyethoxy)ethoxy]ethanol], the “molar heat capacity at constant pressure” value came out at 355.9 ± 5.5 J/K/mol.

The same data set, now with this note: 297.15 K; 101.33 kPa; Liquid; Large sample (1 g) DSC.
Regarding `CCCCCCOCCOCCO` [2-(2-hexyloxyethoxy)ethanol], the “molar heat capacity at constant pressure” value was found to be 420.5 ± 6.5 J/K/mol.
Take `CCCCOCCO` [2-butoxyethan-1-ol]: the “molar heat capacity at constant pressure” value was 272.5 ± 4.2 J/K/mol.
Take `COCCOCCO` [2-(2-methoxyethoxy)ethanol]: the “molar heat capacity at constant pressure” value came to 267.1 ± 4.1 J/K/mol.
Same read-out and setting: to `CCOCCO` [2-ethoxyethan-1-ol] belongs 210.7 ± 3.3 J/K/mol; to `COCCOCCOCCO` [2-[2-(2-methoxyethoxy)ethoxy]ethanol], 356.3 ± 5.5 J/K/mol.

The data set is the same for the next values; noted with them: 298.15 K; 101.33 kPa; Liquid; Large sample (1 g) DSC.
Regarding `CCCCCCOCCOCCO` [2-(2-hexyloxyethoxy)ethanol], the “molar heat capacity at constant pressure” value amounted to 421 ± 6.5 J/K/mol.
Still for that read-out and setting: with `CCCCOCCO` [2-butoxyethan-1-ol] the figure was 273 ± 4.2 J/K/mol; with `COCCOCCO` [2-(2-methoxyethoxy)ethanol], 267.4 ± 4.1 J/K/mol.
Take `CCOCCO` [2-ethoxyethan-1-ol]: the “molar heat capacity at constant pressure” value is on record as 211.1 ± 3.3 J/K/mol.
For `COCCOCCOCCO` [2-[2-(2-methoxyethoxy)ethoxy]ethanol], the “molar heat capacity at constant pressure” value came to 356.6 ± 5.5 J/K/mol.

Still in this data set, the particulars now being: 299.15 K; 101.33 kPa; Liquid; Large sample (1 g) DSC.
Regarding `CCCCCCOCCOCCO` [2-(2-hexyloxyethoxy)ethanol], the “molar heat capacity at constant pressure” value is 421.4 ± 6.5 J/K/mol.
`CCCCOCCO` [2-butoxyethan-1-ol]: the “molar heat capacity at constant pressure” value was 273.5 ± 4.2 J/K/mol.
For `COCCOCCO` [2-(2-methoxyethoxy)ethanol], the “molar heat capacity at constant pressure” value is recorded as 267.6 ± 4.1 J/K/mol.
In the case of `CCOCCO` [2-ethoxyethan-1-ol], the “molar heat capacity at constant pressure” value turned out to be 211.4 ± 3.3 J/K/mol.
Take `COCCOCCOCCO` [2-[2-(2-methoxyethoxy)ethoxy]ethanol]: the “molar heat capacity at constant pressure” value was 356.8 ± 5.5 J/K/mol.

Still in this data set, the particulars now being: 301.15 K; 101.33 kPa; Liquid; Large sample (1 g) DSC.
Consider `CCCCCCOCCOCCO` [2-(2-hexyloxyethoxy)ethanol], for which the “molar heat capacity at constant pressure” value is reported as 422.3 ± 6.5 J/K/mol.
As for `CCCCOCCO` [2-butoxyethan-1-ol], the “molar heat capacity at constant pressure” value came out at 274.5 ± 4.3 J/K/mol.
With `COCCOCCO` [2-(2-methoxyethoxy)ethanol], the “molar heat capacity at constant pressure” value is listed as 268.2 ± 4.2 J/K/mol.
For the compound `CCOCCO` [2-ethoxyethan-1-ol], the “molar heat capacity at constant pressure” value is recorded as 212.1 ± 3.3 J/K/mol.
Same read-out and setting: with `COCCOCCOCCO` [2-[2-(2-methoxyethoxy)ethoxy]ethanol] the figure was 357.2 ± 5.5 J/K/mol.

Staying with this data set, now noted: 303.15 K; 101.33 kPa; Liquid; Large sample (1 g) DSC.
With `CCCCCCOCCOCCO` [2-(2-hexyloxyethoxy)ethanol], the “molar heat capacity at constant pressure” value is recorded as 423.2 ± 6.6 J/K/mol.
As to `CCCCOCCO` [2-butoxyethan-1-ol], the “molar heat capacity at constant pressure” value is listed as 275.5 ± 4.3 J/K/mol.
For the compound `COCCOCCO` [2-(2-methoxyethoxy)ethanol], the “molar heat capacity at constant pressure” value turned out to be 268.7 ± 4.2 J/K/mol.
On the same count and under the same terms, with `CCOCCO` [2-ethoxyethan-1-ol] the figure was 212.8 ± 3.3 J/K/mol; with `COCCOCCOCCO` [2-[2-(2-methoxyethoxy)ethoxy]ethanol], 357.7 ± 5.5 J/K/mol.

The same data set, now with this note: 305.15 K; 101.33 kPa; Liquid; Large sample (1 g) DSC.
Take `CCCCCCOCCOCCO` [2-(2-hexyloxyethoxy)ethanol]: the “molar heat capacity at constant pressure” value stood at 424.2 ± 6.6 J/K/mol.
As for `CCCCOCCO` [2-butoxyethan-1-ol], the “molar heat capacity at constant pressure” value came out at 276.5 ± 4.3 J/K/mol.
On to `COCCOCCO` [2-(2-methoxyethoxy)ethanol], for which the “molar heat capacity at constant pressure” value is given as 269.3 ± 4.2 J/K/mol.
For the compound `CCOCCO` [2-ethoxyethan-1-ol], the “molar heat capacity at constant pressure” value is listed as 213.6 ± 3.3 J/K/mol.
In the case of `COCCOCCOCCO` [2-[2-(2-methoxyethoxy)ethoxy]ethanol], the “molar heat capacity at constant pressure” value was found to be 358.1 ± 5.5 J/K/mol.

The values are drawn from the NIST ThermoML archive (doi:10.1021/acs.jced.5b00051).
